Source: a melting point compilation (Tetko et al.; mined from patent text by program, amines drawn as free bases though some values may be those of a salt)

| SMILES | melting point |
| --- | --- |
| CCCn1c(COCC)nc2c(N)nc3ccc(OC4CCN(S(C)(=O)=O)CC4)cc3c21 | 240 to 244 °C |
| COc1cc2c(cc1OCc1ccccc1)C(c1ccccc1)=NCC2 | 134 to 137 °C |
| N#Cc1c(N2CCc3ccccc3CC2)nc(C2CC2)[nH]c1=O | > 200 °C |
| O=C(c1ccc([N+](=O)[O-])cc1)c1c(Cl)cc(O)cc1Cl | 118 to 120 °C |
| COc1ncccc1C(=O)Nc1ccn2cc(-c3ccccc3)nc2n1 | 225 to 226 °C |
| O=C(Nc1cnc2ccc(Cl)cc2c1-c1ccccc1)Nc1c(F)cccc1F | 228 to 229 °C |
| O=Cc1ccc2c(c1)S(=O)c1ccccc1CC2 (stereo not drawn) | 158 to 160 °C |
| COc1ccc2c(c1)N(CCNC(C)=O)C(c1ccccc1)CO2 (stereo not drawn) | 125 to 126 °C |
| CNC(=O)NNC1=NS(=O)(=O)c2ccccc21 | 183 °C |
| O=C(c1cc2ccc3[nH]ccc3c2[nH]1)N1CCC(Cc2ccccc2)CC1 | 186 to 188 °C |
| O=C1NC(=O)C(=Cc2cc(O)c(O)c([N+](=O)[O-])c2)N1 | > 350 °C |
| Cc1cccc(-c2cn(C)cc(-c3ccccc3)c2=O)c1 | 79.5 °C |
| CC(C(=O)N1CCCC1C(=O)O)N(CC(=O)C(Cc1ccccc1)NC(=O)c1ccccc1)C(=O)OCc1ccccc1 (stereo not drawn) | 70 to 91 °C |
| COc1ccc(OC)c2c1CCOC2CCl (stereo not drawn) | 101 to 102 °C |
| CCOCc1nc2c(N)nc3cc(OCCCCCCNC(C)=O)ccc3c2n1CC(C)(C)NC(C)=O | 190 to 192 °C |
| O=C(O)C(=O)c1cn(Cc2ccccc2)c2ccc(Oc3ccc(C(F)(F)F)cc3Cl)cc12 | 152 to 154 °C |
| N#Cc1cccc(C=CC=O)c1 | 100 °C |
| ClCc1cccc2c(C3CCCCC3)nccc12 | 88.4 to 89.4 °C |

| SMILES | melting point |
| --- | --- |
| COc1ccc(CN2C(=O)C(C)(c3cc(CN4CCCCC4=O)ccc3Cl)c3cc(Cl)ccc32)c(OC)c1 (stereo not drawn) | 72 °C |
| CCCCCCCCNC(=O)C1CC1c1ccc(N2CC(C(=O)O)CC2=O)cc1 (stereo not drawn) | 214 °C |
| COC(=O)c1nc2cc(Cl)c(OC)c(Cl)c2c(O)c1C(=O)OC | 210 to 211 °C |
| CC(C)(C)n1cc(-c2ccc(-c3ccccc3)cc2)c2c(N)ncnc21 | 212 to 214 °C |
| C=C(c1c(C#N)nn(-c2c(Cl)cc(C(F)(F)F)cc2Cl)c1N)C(F)(F)F | 147 to 148 °C |
| Cc1nc(C(=O)O)c(C(=O)NC(C)(C)C)o1 | 186 to 188 °C |
| Cc1c(C(=O)CC(C)(C)C)c2ccccc2n1CCCNS(C)(=O)=O | 139 to 142 °C |
| N#Cc1cc(Br)cc(C(F)(F)F)n1 | 88.5 °C |
| O=C1C=C(NC(=O)C(=O)c2cn(Cc3c(F)cccc3Cl)c3ccccc23)CO1 | > 270 °C |
| Cc1ccc2cccc(OCc3c(Cl)ccc(N(C)C(=O)CNC(=O)/C=C/c4ccc(NC(=O)c5cnccn5)nc4)c3Cl)c2n1 | 220 to 231 °C |
| C=CC(=O)NCCCCOc1ccccc1 | 46 to 47 °C |
| CSC1CCC(=O)C(C(=O)c2ccc(S(C)(=O)=O)cc2Cl)C1=O (stereo not drawn) | 146 to 149 °C |
| Cc1cccc(C)c1N1Cc2ccccc2P1(C)=O (stereo not drawn) | 128 to 129 °C |
| S=C1CNC(=S)c2cc(Cl)ccc2N1 | 273 to 274 °C |
| NC(=S)c1ccc(O)cc1O | 164 to 166 °C |
| CC#CCOc1ccc(S(=O)(=O)N(C)C(C(=O)NO)C(C)(C)SCC(C)N(CC)CC)cc1 (stereo not drawn) | 65 to 68 °C |
| CCC(=O)Nc1snc(N(CC)CC)c1C#N | 188 to 189 °C |

Other lines, results leading:

| melting point | SMILES |
| --- | --- |
| 308 to 309 °C | O=c1ccc2c3ccccc3[nH]c2n1-c1ccccc1 |
| 280 to 281 °C | CC(=O)Oc1ccc(C(=O)Nc2ncc(S(C)(=O)=O)s2)cc1 |
| 88 to 90 °C | CC(=O)c1c(O)cccc1OCC(O)COc1c(C)cccc1C (stereo not drawn) |
| 171 to 173 °C | COc1ccc([C@@H]2Cc3cc(OC)ccc3NC(=O)[C@@H]2O)cc1 |
| 140 to 141 °C | Cc1cc(C(N)=O)c(N)s1 |
| 110 °C | Cc1cc(-c2ccnc(Cl)c2)n(-c2ccc(Cl)cc2)n1 |
| 68 °C | CC12CCC(C(=Cc3ccc(OCCO)cc3)C1=O)C2(C)C (stereo not drawn) |
| 138 to 140 °C | COCc1nc(C(C)(C)O)c(C(=O)OCc2oc(=O)oc2C)n1Cc1ccc(-c2ccccc2-c2nnn[nH]2)cc1 |
| 153 to 154 °C | Cc1cc(C)nc(N(C#N)c2ccccc2)n1 |
| 224 to 225 °C | CCCOc1ccccc1-c1nc(O)cc(O)n1 |
| 162 to 163 °C | CC(=O)N[C@H]1CCC(=O)N2CCC[C@@H](C(=O)OC(C)(C)C)N2C1=O |
| 143 to 144 °C | O=C(Nc1ccccc1)N1C(=S)C2(CCCCC2)NC12CCCCC2 |
| 89 to 91 °C | O=C(c1ccccc1)C(Br)OCc1ccc(Cl)cc1Cl (stereo not drawn) |
| > 280 °C | O=C1c2ccc(Br)cc2C(=O)c2ccc(Br)cc21 |
| 160 °C | C=CC[C@H]1C(=O)N[C@H]2CCN(C(=O)OCc3ccccc3)[C@@H]21 (relative stereo) |
| 327 to 330 °C | NC(=O)c1ccc(N2CCN(c3ccncc3)CC2)cc1 |
| 190 to 192 °C | Cc1cccc(-c2nc(N)sc2-c2ccnc(-c3ccc(CN4CCOCC4)cc3)c2)n1 |
| 145 to 147 °C | CC(O)c1ccc(Nc2nccc(-c3cccnc3)n2)cc1 (stereo not drawn) |
| 98 °C | COc1ccc(C2(O)CCN(C(=O)OCc3ccccc3)CC2)cc1 |

| melting point | SMILES |
| --- | --- |
| 85 °C | c1csc(-c2nc3ccc(N4CCC(N5CCCC5)CC4)nn3c2-c2ccncc2)c1 |
| 214 to 215 °C | CCN1C(=O)SC(Cc2ccc(NC(=O)/C=C/c3cnn(C)c3-c3ccc(F)cc3)cc2)C1=O (stereo not drawn) |
| 212 to 214 °C | O=C(O)COc1cccc2c1Cc1sc(S(=O)(=O)CC=Cc3ccccc3)nc1-2 |
| 257 to 262 °C | O=C(NCC12CC3CC(CC(C3)C1)C2)c1c(Cl)ccc2nc(N3CCC[C@@H](C(=O)O)C3)ccc12 |
| 109 to 110 °C | Cc1cc(C)cc(SCc2c(C(C)C)nc(C(C)C)c(CO)c2-c2ccc(F)cc2)c1 |
| 104 to 106 °C | CSCCn1nc(-c2cc(C(C)(C)C)c(O)c(C(C)(C)C)c2)c2cccnc21 |
| 171 to 172 °C | O=C(O)COc1ccc2cc(-c3ccc(-c4ccccc4)n3Cc3ccccc3)ccc2c1 |
| 243 to 245 °C | COc1cccc(OC)c1C(=O)Nc1nnc(-c2cccc(O)c2)s1 |
| 193 to 194 °C | CSc1ncc(Cc2ccc(Cl)cc2)c(=O)[nH]1 |
| 213 to 215 °C | Nc1nc2ccc(NC(=O)c3ccccc3)cc2s1 |
| 149 °C | Cc1cnc2c(c1)CCCC2C(N)=S (stereo not drawn) |
| 232 to 234 °C | O=C(C=Cc1ccc(NC(=O)c2ccccc2)cc1)NO |
| 160 to 165 °C | CON=C(C(=O)N[C@@H]1C(=O)N[C@@H]1C(=O)N(C)C)c1csc(NC(=O)CCl)n1 (relative stereo) |
| 188 to 190 °C | CCOC(=O)C(C)(C)Sc1ccc(OCCn2c(C)nc3ccccc3c2=O)cc1 |
| 156 °C | O=C1N=c2ccccc2=C1C1CCNCC1 |
| 74 to 77 °C | CC(C)(CCCCCCCC(=O)CCCCCCCC(C)(C)C(=O)O)C(=O)O |
| 84 to 86 °C | COc1ccc(Nc2nc(NC3CCCCCC3)nc(OCC3CCCN3)n2)cc1Cl (stereo not drawn) |
| 112 to 114 °C | CCc1ccc2c(c1)CC(NC(=O)C(F)(F)F)C2 (stereo not drawn) |
| 155 °C | CC(O)C#CC1(C)C=CN=C(N)N1 (stereo not drawn) |
